Experimental data: patent publication US9572783B1, “Use of xanthophylls for the treatment of cancers” (priority 2015, dated 2017)

How the values were obtained:
Type in all cases: cell-based
[1] = tested on: Mouse adrenocortical Y1 cell line; test: Y1 cell number count after astaxanthin treatment (growth curve); conditions: 40 μM astaxanthin, 1, 2 or 3 days of treatment
Protocol: (§1) Mouse adrenocortical Y1 cell line (ATCC, ATCC® CCL-79™) was grown in Dulbecco's modified Eagle medium (DMEM)-F12 supplemented with 10% fetal bovine serum at 37° C. in a humidified atmosphere at 5% CO2.
(§2) Astaxanthin (Model NO: ATP-9601A; Yuan Yu Bio-Tech (Taiwan), Co., Ltd) was dissolved in dimethyl sulfoxide (DMSO) at concentration of 20 mM as stock solution.
(§3) The Y1 cells were incubated with DMSO or 40 μM of astaxanthin for 1, 2 or 3 days before analysis.

[2] = tested on: Mouse adrenocortical Y1 cell line; test: MTT assay of Y1 cell viability; conditions: Y1 cells, 40 μM astaxanthin, 48 hours
Protocol: as §1, §2, §3
(§4) Cells were washed with PBS after the treatment, followed by addition of 1 ml MTT (3-(4,5-cimethylthiazol-2-yl)-2,5-diphenyl tetrazolium bromide) solution (2 mg/ml in PBS) in each well. After incubation for 3 hours at 37° C., 2 ml of DMSO was added and cells were incubated in the dark for 30 minutes. Absorbance was measured at the wavelength of 570 nm (OD570).

[3] = tested on: Human U87MG cell line; test: U87MG cell number count after astaxanthin treatment; conditions: 100, 200 or 400 μM astaxanthin, 24 hours or 48 hours
Protocol: (§5) Human U87MG (ATCC, ATCC® HTB-14™) cell line was grown in DMEM medium supplemented with 10% fetal bovine serum at 37° C. in a humidified atmosphere at 5% CO2. M059K (ATCC, ATCC® CRL-2365™) and M059J (ATCC, ATCC® CRL-2366™) cell lines were grown in Dulbecco's modified Eagle medium (DMEM)-F12 supplemented with 10% fetal bovine serum at 37° C. in a humidified atmosphere at 5% CO2.
(§6) Astaxanthin was dissolved in dimethyl sulfoxide (DMSO) at concentration of 20 mM as stock solution.
(§7) The U87MG, M059K, and M059J cell lines were treated with DMSO or 100, 200 or 400 μM of astaxanthin for 24 hours or 48 hours and cell numbers were counted.

[4] = tested on: Human U87MG cell line; test: MTT assay of U87MG cell viability; conditions: DMSO or different concentrations of astaxanthin
Protocol: as §4, §5, §6, §7

[5] = tested on: M059K cell line; test: M059K cell number count after astaxanthin treatment; conditions: 100, 200 or 400 μM astaxanthin, 24 hours or 48 hours
Protocol: as §5, §6, §7

[6] = tested on: Human U2OS cell line; test: U2OS cell number count after astaxanthin treatment; conditions: 100, 200 or 400 μM astaxanthin, 72 hours
Protocol: Human U2OS (ATCC, ATCC® HTB-96™) cell line was grown in DMEM medium supplemented with 10% fetal bovine serum at 37° C. in a humidified atmosphere at 5% CO2.
as §6
The U2OS cell line was treated with DMSO or 100, 200 or 400 μM of astaxanthin for 72 hours and cell numbers were counted.

CC1=C(/C=C/C(C)=C/C=C/C(C)=C/C=C/C=C(C)/C=C/C=C(C)/C=C/C2=C(C)C(=O)[C@@H](O)CC2(C)C)C(C)(C)C[C@H](O)C1=O [astaxanthin, Astaxanthin]
number of Y1 cells compared with control (DMSO treated) group [1]: reduced | OD570 (MTT, cell viability) compared with DMSO treated group [2]: reduced | U87MG cell growth (cell number) [3]: inhibited U87MG cell growth in a dose-dependent and time-dependent manner | viability of U87MG cells (MTT) [4]: reduced | M059K cell growth (cell number) [5]: also inhibited M059K | U2OS cell growth (cell number) [6]: inhibited U2OS cell growth in a dose-dependent manner
